17 compounds from patent publication US20110183969A1, “ANTIFUNGAL COMBINATION THERAPY” (priority 2008, published 2011) can be followed below.

Converted amounts (≈) assume the structure as drawn.

Holding throughout (assay): MIC (YAG medium)
What all share (type): cell-based

The subject of one experiment is Aspergillus flavus. The conditions noted are these: YAG medium, MIC banded into grades; for MIC: Aspergillus flavus, read-out: MIC A. flavus (grade). A digest of the protocol:
(§1)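 Spores harvested from 5-day Sabouraud agar cultures were diluted in YAG medium (1% glucose, 1% ammonium chloride, 0.5% yeast extract) to final inocula of 1-2×10^4 cfu/mL and exposed to doubling dilutions of compound (50-0.05 mg/L). After 24 hrs at 35° C, OD485 was read; MIC is the lowest concentration giving >70% growth inhibition versus drug-free control.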

The test system of experiment [1] is Aspergillus fumigatus AF210. The note with it: YAG medium, MIC banded into grades, AF210; for MIC: Aspergillus fumigatus, read-out: MIC A. fumigatus 210 (grade). The method, boiled down:
as §1

Experiment [2] concerns Aspergillus fumigatus AF293. The note with it: YAG medium, MIC banded into grades, AF293; for MIC: Aspergillus fumigatus, read-out: MIC A. fumigatus (grade). A digest of the protocol:
as §1

In a further experiment the test system is Aspergillus niger. The note with it: YAG medium, MIC banded into grades; for MIC: Aspergillus niger, read-out: MIC A. niger (grade). A digest of the protocol: as §1
Another experiment concerns Aspergillus terreus AT49. The conditions noted are these: YAG medium, MIC banded into grades, AT49; for MIC: Aspergillus terreus, read-out: MIC A. terreus 49 (grade). The method, boiled down:
as §1

Another experiment relates to Aspergillus terreus AT4. The conditions noted are these: YAG medium, MIC banded into grades, AT4; for MIC: Aspergillus terreus, read-out: MIC A. terreus (grade). The method, boiled down:
as §1

Take `O=C(Nc1ccc(N2CCN(c3ccccn3)CC2)cc1)C(=O)c1c(-c2ccccc2)cc2ccc(F)cn12` [Example 42, 2-(6-Fluoro-2-phenyl-indolizin-3-yl)-2-oxo-N-[4-(4-pyridin-2-yl-piperazin-1-yl)phenyl] acetamide]: the “MIC A. flavus (grade)” value against Aspergillus flavus is listed as 3 (A grade of 3 represents an MIC of less than 1 mg/L). Moreover, the “MIC A. fumigatus 210 (grade)” value in experiment [1] is reported as 3 (A grade of 3 represents an MIC of less than 1 mg/L). Further, the “MIC A. fumigatus (grade)” value in experiment [2] is on record as 3 (A grade of 3 represents an MIC of less than 1 mg/L). Also, the “MIC A. niger (grade)” value with Aspergillus niger is given as 3 (A grade of 3 represents an MIC of less than 1 mg/L). Besides, in the experiment on Aspergillus terreus AT49, the “MIC A. terreus 49 (grade)” value is recorded as 3 (A grade of 3 represents an MIC of less than 1 mg/L). For the same compound, the “MIC A. terreus (grade)” value against Aspergillus terreus AT4 is on record as 3 (A grade of 3 represents an MIC of less than 1 mg/L).

On to `Cc1cccc(N2CCN(c3ccc(NC(=O)C(=O)c4c(-c5ccccc5)cc5ccccn45)cc3)CC2)n1` [Example 43, N-{4-[4-(6-Methyl-pyridin-2-yl)-piperazin-1-yl]-phenyl}-2-oxo-2-(2-phenyl-indolizin-3-yl)-acetamide], for which the MIC (in the experiment on Aspergillus flavus; in experiment [1]; in experiment [2]; in the experiment on Aspergillus niger; in the experiment with Aspergillus terreus AT49; with Aspergillus terreus AT4) was below 1 µg/mL each time.

On to `Cc1cc(C)nc(N2CCN(c3ccc(NC(=O)C(=O)c4c(-c5ccccc5)cc5ccccn45)cc3)CC2)n1` [Example 44, N-{4-[4-(4,6-Dimethyl-pyrimidin-2-yl)-piperazin-1-yl]-phenyl}-2-oxo-2-(2-phenyl-indolizin-3-yl)-acetamide], for which the MIC (with Aspergillus flavus; in experiment [1]; in experiment [2]; with Aspergillus niger; in the experiment on Aspergillus terreus AT49; in the experiment on Aspergillus terreus AT4) was below 1 µg/mL each time.

As to `C=C1CCN(c2ccc(NC(=O)C(=O)c3c(-c4cccnc4C)cc4ccccn34)cc2)CC1` [Example 46, N-[4-(4-Methylene-piperidin-1-yl)-phenyl]-2-[2-(2-methyl-pyridin-3-yl)-indolizin-3-yl]-2-oxo-acetamide], the MIC (in the experiment with Aspergillus flavus; in experiment [1]; in experiment [2]; in the experiment with Aspergillus niger; in the experiment with Aspergillus terreus AT49; in the experiment with Aspergillus terreus AT4) was below 1 µg/mL in each case.

Regarding `Cc1cc(C)nc(N2CCN(c3ccc(NC(=O)C(=O)c4c(C5CCCC5)cc5ccccn45)cc3)CC2)c1` [Example 47, 2-(2-Cyclopentyl-indolizin-3-yl)-N-{4-[4-(4,6-dimethyl-pyridin-2-yl)-piperazin-1-yl]-phenyl}-2-oxo-acetamide], the MIC (in the experiment with Aspergillus flavus; in experiment [1]; in experiment [2]; with Aspergillus niger; with Aspergillus terreus AT49; with Aspergillus terreus AT4) was below 1 µg/mL each time.

For `Cc1cc(C)nc(N2CCN(c3cccc(NC(=O)C(=O)c4c(-c5ccccc5)cc5ccccn45)c3)CC2)c1` [Example 48, N-{3-[4-(4,6-Dimethyl-pyridin-2-yl)-piperazin-1-yl]-phenyl}-2-oxo-2-(2-phenyl-indolizin-3-yl)-acetamide], the MIC (with Aspergillus flavus; in experiment [1]; in experiment [2]; with Aspergillus niger; with Aspergillus terreus AT49; with Aspergillus terreus AT4) was below 1 µg/mL each time.

With `Cc1ccnc(N2CCN(c3ccc(NC(=O)C(=O)c4c(-c5ccccc5)cc5ccccn45)cc3)CC2)c1` [Example 49, N-{4-[4-(4-Methyl-pyridin-2-yl)-piperazin-1-yl]-phenyl}-2-oxo-2-(2-phenyl-indolizin-3-yl)-acetamide], the MIC (with Aspergillus flavus; in experiment [1]; in experiment [2]; with Aspergillus niger; in the experiment on Aspergillus terreus AT49; in the experiment with Aspergillus terreus AT4) was below 1 µg/mL each time.

For the compound `CC(C)(C)CN1CCN(c2ccc(NC(=O)C(=O)c3c(-c4ccccc4)cc4ccccn34)nc2)CC1` [Example 50, N-{5-[4-(2,2-Dimethyl-propyl)-piperazin-1-yl]-pyridin-2-yl}-2-oxo-2-(2-phenyl-indolizin-3-yl)-acetamide], the MIC (in the experiment with Aspergillus flavus; in experiment [1]; in experiment [2]; in the experiment on Aspergillus niger; in the experiment with Aspergillus terreus AT49; with Aspergillus terreus AT4) was below 1 µg/mL in each case.

Consider `O=C(Nc1ccc(N2CCN(S(=O)(=O)c3cccnc3)CC2)cc1)C(=O)c1c(-c2ccccc2)cc2ccccn12` [Example 51, 2-Oxo-2-(2-phenyl-indolizin-3-yl)-N-{4-[4-(pyridine-3-sulfonyl)-piperazin-1-yl]-phenyl}-acetamide], for which the MIC (in the experiment with Aspergillus flavus; in experiment [1]; in experiment [2]; with Aspergillus niger; in the experiment on Aspergillus terreus AT49; with Aspergillus terreus AT4) was below 1 µg/mL each time.

Take `Cc1cc(N2CCN(c3ccc(NC(=O)C(=O)c4c(-c5ccccc5)cc5ccccn45)cc3)CC2)cc(C)n1` [Example 52, N-{4-[4-(2,6-Dimethyl-pyridin-4-yl)-piperazin-1-yl]-phenyl}-2-oxo-2-(2-phenyl-indolizin-3-yl)-acetamide]: the MIC (with Aspergillus flavus; in experiment [1]; in experiment [2]; in the experiment with Aspergillus niger; in the experiment on Aspergillus terreus AT49; in the experiment with Aspergillus terreus AT4) was above 10 µg/mL throughout.

In the case of `O=C(Nc1ccc(N2CCN(CC3CCOCC3)CC2)cc1)C(=O)c1c(-c2ccccc2)cc2ccc(F)cn12` [Example 53, 2-(6-Fluoro-2-phenyl-indolizin-3-yl)-2-oxo-N-{4-[4-(tetrahydro-pyran-4-ylmethyl)-piperazin-1-yl]-phenyl}-acetamide], the MIC with Aspergillus flavus was 1 to 10 µg/mL (≈ 1.85 to 18.5 µM); in experiment [1], 1 to 10 µg/mL (≈ 1.85 to 18.5 µM); in experiment [2], 1 to 10 µg/mL (≈ 1.85 to 18.5 µM); in the experiment with Aspergillus niger, above 10 µg/mL; with Aspergillus terreus AT49 it was 1 to 10 µg/mL (≈ 1.85 to 18.5 µM); in the experiment on Aspergillus terreus AT4, 1 to 10 µg/mL (≈ 1.85 to 18.5 µM).

For `Cc1cc(C)nc(N2CCCN(c3ccc(NC(=O)C(=O)c4c(-c5ccccc5)cc5ccccn45)cc3)CC2)c1` [Example 54, N-{4-[4-(4,6-Dimethyl-pyridin-2-yl)-[1,4]diazepan-1-yl]-phenyl}-2-oxo-2-(2-phenyl-indolizin-3-yl)-acetamide], the MIC (in the experiment with Aspergillus flavus; in experiment [1]; in experiment [2]; in the experiment with Aspergillus niger; in the experiment with Aspergillus terreus AT49; in the experiment with Aspergillus terreus AT4) was below 1 µg/mL in each case.

In the case of `Cc1cc(C)nc(N(C)CCN(C)c2ccc(NC(=O)C(=O)c3c(-c4ccccc4)cc4ccccn34)cc2)c1` [Example 55, N-[4-({2-[(4,6-Dimethyl-pyridin-2-yl)-methyl-amino]-ethyl}-methyl-amino)-phenyl]-2-oxo-2-(2-phenyl-indolizin-3-yl)-acetamide], the MIC (with Aspergillus flavus; in experiment [1]; in experiment [2]; with Aspergillus niger; in the experiment with Aspergillus terreus AT49; with Aspergillus terreus AT4) was below 1 µg/mL each time.

As for `O=C(Nc1ccc(N2CCN(c3ccc(CN4CCOCC4)cc3)CC2)cc1)C(=O)c1c(-c2ccccc2)cc2ccccn12` [Example 56, N-{4-[4-(4-Morpholin-4-ylmethyl-phenyl)-piperazin-1-yl]-phenyl}-2-oxo-2-(2-phenyl-indolizin-3-yl)-acetamide], the MIC (with Aspergillus flavus; in experiment [1]; in experiment [2]; in the experiment on Aspergillus niger; in the experiment on Aspergillus terreus AT49; with Aspergillus terreus AT4) was below 1 µg/mL throughout.

With `COCCOc1cc(C)nc(N2CCN(c3ccc(NC(=O)C(=O)c4c(-c5ccccc5)cc5ccccn45)cc3)CC2)c1` [Example 57, N-(4-{4-[4-(2-Methoxy-ethoxy)-6-methyl-pyridin-2-yl]-piperazin-1-yl}-phenyl)-2-oxo-2-(2-phenyl-indolizin-3-yl)-acetamide], the MIC (with Aspergillus flavus; in experiment [1]; in experiment [2]; in the experiment on Aspergillus niger; with Aspergillus terreus AT49; in the experiment with Aspergillus terreus AT4) was below 1 µg/mL in each case.

On to `Cc1cc(C)nc(N2CCN(c3ccc(NC(=O)C(=O)c4c(C5CC5)cc5ccccn45)cc3)CC2)c1` [Example 58, 2-(2-Cyclopropyl-indolizin-3-yl)-N-{4-[4-(4,6-dimethyl-pyridin-2-yl)-piperazin-1-yl]-phenyl}-2-oxo-acetamide], for which the MIC (with Aspergillus flavus; in experiment [1]; in experiment [2]; in the experiment on Aspergillus niger; in the experiment on Aspergillus terreus AT49; with Aspergillus terreus AT4) was below 1 µg/mL each time.

With `O=C(Nc1ccc(N2CCN(c3cccnc3)CC2)cc1)C(=O)c1c(-c2ccccc2)cc2ccccn12` [Example 59, 2-Oxo-2-(2-phenyl-indolizin-3-yl)-N-[4-(4-pyridin-3-yl-piperazin-1-yl)-phenyl]-acetamide], the MIC (with Aspergillus flavus; in experiment [1]; in experiment [2]; in the experiment with Aspergillus niger; in the experiment with Aspergillus terreus AT49; with Aspergillus terreus AT4) was below 1 µg/mL throughout.
